This is an account of results in patent publication US11325938B2, “CD73 inhibitors” (ORIC Pharmaceuticals, Inc., priority 2018, dated 2022).

Where only a bound is given, the exact number is not on record here.

The assay deals with CD73 (Homo sapiens (Human), UniProt P21589). Briefly: Biochemical assay: inhibition of CD73 activity (AMP hydrolysis, Malachite Green readout). To be noted: CD73 0.3208 nM, AMP 15 μM, 25 mM Tris-HCl pH 7.4, RT, absorbance 620 nm. The method, boiled down: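 Phosphate from AMP hydrolysis (15 μM AMP, 10 min, RT) was detected by Malachite Green absorbance to give IC50s. Enzyme at 320 pM was first exposed 15 min to compounds, dosed from 100 μM in ½-log steps, in Tris pH 7.4 buffer with MgCl2, Brij-35 and BSA.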
Sequence of CD73 (P21589 27-574): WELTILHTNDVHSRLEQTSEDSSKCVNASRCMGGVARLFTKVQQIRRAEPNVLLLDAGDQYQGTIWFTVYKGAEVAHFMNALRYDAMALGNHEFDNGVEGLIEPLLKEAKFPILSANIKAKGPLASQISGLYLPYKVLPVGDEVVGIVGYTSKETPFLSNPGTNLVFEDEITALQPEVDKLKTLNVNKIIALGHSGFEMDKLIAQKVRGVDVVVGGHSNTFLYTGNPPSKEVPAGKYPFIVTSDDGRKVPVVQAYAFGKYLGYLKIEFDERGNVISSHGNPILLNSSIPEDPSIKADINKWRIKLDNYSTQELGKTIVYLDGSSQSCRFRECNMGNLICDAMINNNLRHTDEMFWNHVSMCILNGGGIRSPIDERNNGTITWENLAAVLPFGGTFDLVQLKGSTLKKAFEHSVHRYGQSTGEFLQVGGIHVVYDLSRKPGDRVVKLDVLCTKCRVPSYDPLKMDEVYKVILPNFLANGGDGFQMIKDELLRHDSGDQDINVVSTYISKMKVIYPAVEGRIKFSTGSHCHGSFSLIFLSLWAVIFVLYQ

With `C[C@@](CO)(OC[C@H]1O[C@@H](n2ncc3c(NC4CC5(CCC5)C4)nc(Cl)nc32)[C@H](O)[C@@H]1O)P(=O)(O)O` [Example 126, ((R)-2-(((2R,3S,4R,5R)-5-(6-chloro-4-(spiro[3.3]heptan-2-ylamino)-1H-pyrazolo[3,4-d]pyrimidin-1-yl)-3,4-dihydroxytetrahydrofuran-2-yl)methoxy)-1-hydroxypropan-2-yl)phosphonic acid], the IC50 is at most 0.1 µM.
`CC(C)(O)COc1nc(NC2CCCC2)c2cnn([C@@H]3O[C@H](COC(C)(CO)P(=O)(O)O)[C@@H](O)[C@H]3O)c2n1` (stereo partly drawn) [Example 146, (2-(((2R,3S,4R,5R)-5-(4-(cyclopentylamino)-6-(2-hydroxy-2-methylpropoxy)-1H-pyrazolo[3,4-d]pyrimidin-1-yl)-3,4-dihydroxytetrahydrofuran-2-yl)methoxy)-1-hydroxypropan-2-yl)phosphonic acid] gave an IC50 of at most 0.1 µM.
The molecule `O=P(O)(O)C(CO)(CO)OC[C@H]1O[C@@H](n2ncc3c(NCc4ccc(Cl)cc4)nc(Cl)nc32)[C@H](O)[C@@H]1O` (racemic) [Example 201, rac-(2-(((2R,3S,4R,5R)-5-(6-chloro-4-((4-chlorobenzyl)amino)-1H-pyrazolo[3,4-d]pyrimidin-1-yl)-3,4-dihydroxytetrahydrofuran-2-yl)methoxy)-1,3-dihydroxypropan-2-yl)phosphonic acid] yielded an IC50 of at most 0.1 µM.
The molecule `O=P(O)(O)C(CO)(CO)OC[C@H]1O[C@@H](n2ncc3c(NC4CCC4)nc(Cl)nc32)[C@H](O)[C@@H]1O` [Example 116, (2-(((2R,3S,4R,5R)-5-(6-chloro-4-(cyclobutylamino)-1H-pyrazolo[3,4-d]pyrimidin-1-yl)-3,4-dihydroxytetrahydrofuran-2-yl)methoxy)-1,3-dihydroxypropan-2-yl)phosphonic acid] returned a half-maximal inhibitory concentration (IC50) of at most 0.1 µM.
`O=P(O)(O)CS(=O)(=O)C[C@H]1O[C@@H](n2nnc3c(NCC4CC4)cc(Cl)nc32)[C@H](O)[C@@H]1O` [Example 25, (((((2S,3S,4R,5R)-5-(5-chloro-7-((cyclopropylmethyl)amino)-3H-[1,2,3]triazolo[4,5-b]pyridin-3-yl)-3,4-dihydroxytetrahydrofuran-2-yl)methyl)sulfonyl)methyl)phosphonic acid] returned an IC50 of at most 0.1 µM.
`CCOCC(COCC)(OC[C@H]1O[C@@H](n2ncc3c(NC4CCCC4)nc(Cl)nc32)[C@H](O)[C@@H]1O)P(=O)(O)O` (racemic) [Example 185, rac-(2-(((2R,3S,4R,5R)-5-(6-chloro-4-(cyclopentylamino)-1H-pyrazolo[3,4-d]pyrimidin-1-yl)-3,4-dihydroxytetrahydrofuran-2-yl)methoxy)-1,3-diethoxypropan-2-yl)phosphonic acid] registered an IC50 of at most 0.1 µM.
`C[C@H](O)COc1nc(NC2CCCC2)c2cnn([C@@H]3O[C@H](COC(CO)(CO)P(=O)(O)O)[C@@H](O)[C@H]3O)c2n1` (racemic) [Example 181, rac-(2-(((2R,3S,4R,5R)-5-(4-(cyclopentylamino)-6-((S)-2-hydroxypropoxy)-1H-pyrazolo[3,4-d]pyrimidin-1-yl)-3,4-dihydroxytetrahydrofuran-2-yl)methoxy)-1,3-dihydroxypropan-2-yl)phosphonic acid] registered a 50% inhibitory concentration (IC50) of at most 0.1 µM.
The figure for `COC[C@](C)(OC[C@H]1O[C@@H](n2nnc3c(NC4CCCC4)nc(Cl)nc32)[C@H](O)[C@@H]1O)P(=O)(O)O` [Example 110, ((R)-2-(((2R,3S,4R,5R)-5-(5-chloro-7-(cyclopentylamino)-3H-[1,2,3]triazolo[4,5-d]pyrimidin-3-yl)-3,4-dihydroxytetrahydrofuran-2-yl)methoxy)-1-methoxypropan-2-yl)phosphonic acid] is at most 0.1 µM; for `O=P(O)(O)COC[C@H]1O[C@@H](n2nnc3c(NCC4CCC4)cc(Cl)nc32)[C@H](O)[C@@H]1O` [Example 24, ((((2R,3S,4R,5R)-5-(5-chloro-7-((cyclobutylmethyl)amino)-3H-[1,2,3]triazolo[4,5-b]pyridin-3-yl)-3,4-dihydroxytetrahydrofuran-2-yl)methoxy)methyl)phosphonic acid] it is at most 0.1 µM.
`COC[C@H](OC[C@H]1O[C@@H](n2nnc3c(NC4CCCC4)cc(Cl)nc32)[C@H](O)[C@@H]1O)P(=O)(O)O` [Example 157, ((R)-1-(((2R,3S,4R,5R)-5-(5-chloro-7-(cyclopentylamino)-3H-[1,2,3]triazolo[4,5-b]pyridin-3-yl)-3,4-dihydroxytetrahydrofuran-2-yl)methoxy)-2-methoxyethyl)phosphonic acid] had an IC50 of at most 0.1 µM.
The molecule `C[C@](Cc1nn[nH]n1)(OC[C@H]1O[C@@H](n2ncc3c(NC4CCCC4)nc(Cl)nc32)[C@H](O)[C@@H]1O)P(=O)(O)O` [Example 120, ((S)-2-(((2R,3S,4R,5R)-5-(6-chloro-4-(cyclopentylamino)-1H-pyrazolo[3,4-d]pyrimidin-1-yl)-3,4-dihydroxytetrahydrofuran-2-yl)methoxy)-1-(2H-tetrazol-5-yl)propan-2-yl)phosphonic acid] came in with a 50% inhibitory concentration (IC50) of at most 0.1 µM.
The molecule `C[C@](CO)(OC[C@H]1O[C@@H](n2ncc3c(N[C@@H]4CCc5ccc(F)cc54)nc(Cl)nc32)[C@H](O)[C@@H]1O)P(=O)(O)O` [Example 108, ((S)-2-(((2R,3S,4R,5R)-5-(6-chloro-4-(((R)-6-fluoro-2,3-dihydroxy-1H-inden-1-yl)amino)-1H-pyrazolo[3,4-d]pyrimidin-1-yl)-3,4-dihydroxytetrahydrofuran-2-yl)methoxy)-1-hydroxypropan-2-yl)phosphonic acid] gave an IC50 of at most 0.1 µM.
The figure for `O=C(O)c1ccccc1COCC(CO)(OC[C@H]1O[C@@H](n2ncc3c(NC4CCCC4)nc(Cl)nc32)[C@H](O)[C@@H]1O)P(=O)(O)O` (mixture of isomers) [Example 227, rac-2-((2-(((2R,3S,4R,5R)-5-(6-chloro-4-(cyclopentylamino)-1H-pyrazolo[3,4-d]pyrimidin-1-yl)-3,4-dihydroxytetrahydrofuran-2-yl)methoxy)-3-hydroxy-2-phosphonopropoxy)methyl)benzoic acid] is at most 0.1 µM; for `COCC(COC)(OC[C@H]1O[C@@H](n2ncc3c(NC4CCCC4)nc(Cl)nc32)[C@H](O)[C@@H]1O)P(=O)(O)O` [Example 87, [1-[[(2R,3S,4R,5R)-5-[6-Chloro-4-(cyclopentylamino)pyrazolo[3,4-d]pyrimidin-1-yl]-3,4-dihydroxy-tetrahydrofuran-2-yl]methoxy]-2-methoxy-1-(methoxymethyl)ethyl]phosphonic acid] it is at most 0.1 µM.
Molecule `C[C@H](O)[C@@H](OC[C@H]1O[C@@H](n2ncc3c(NC4CCCC4)nc(Cl)nc32)[C@H](O)[C@@H]1O)P(=O)(O)O` [Example 11, ((1S,2S)-1-(((2R,3S,4R,5R)-5-(6-chloro-4-(cyclopentylamino)-1H-pyrazolo[3,4-d]pyrimidin-1-yl)-3,4-dihydroxytetrahydrofuran-2-yl)methoxy)-2-hydroxypropyl)phosphonic acid] yielded a 50% inhibitory concentration (IC50) of at most 0.1 µM.
For `O=P(O)(O)[C@](CO)(Cc1nn[nH]n1)OC[C@H]1O[C@@H](n2ncc3c(NC4CCC4)nc(Cl)nc32)[C@H](O)[C@@H]1O` (racemic) [Example 214, rac-((R)-2-(((2S,3R,4S,5S)-5-(6-chloro-4-(cyclobutylamino)-1H-pyrazolo[3,4-d]pyrimidin-1-yl)-3,4-dihydroxytetrahydrofuran-2-yl)methoxy)-1-hydroxy-3-(2H-tetrazol-5-yl)propan-2-yl)phosphonic acid] the value was at most 0.1 µM; for `COCC(C)(OC[C@@H]1C[C@@H](O)[C@H](n2ncc3c(NC4CCCC4)nc(Cl)nc32)O1)P(=O)(O)O` (stereo partly drawn) [Example 70, (2-(((2S,4R,5R)-5-(6-chloro-4-(cyclopentylamino)-1H-pyrazolo[3,4-d]pyrimidin-1-yl)-4-hydroxytetrahydrofuran-2-yl)methoxy)-1-methoxypropan-2-yl)phosphonic acid], 0.1 to 1 µM; for `O=P(O)(O)[C@@H](CO)OC[C@H]1O[C@@H](n2ncc3c(NC4CCCC4)nc(Cl)nc32)[C@H](O)[C@@H]1O` (single isomer, unassigned) [Example 3], at most 0.1 µM.
Regarding `C[C@](CO)(OC[C@H]1O[C@@H](n2ncc3c(N[C@@H]4CC[C@H]5CCC[C@H]54)nc(Cl)nc32)[C@H](O)[C@@H]1O)P(=O)(O)O` (racemic) [Example 173, rac-((R)-2-(((2S,3R,4S,5S)-5-(6-chloro-4-(((1S,3aS,6aS)-octahydropentalen-1-yl)amino)-1H-pyrazolo[3,4-d]pyrimidin-1-yl)-3,4-dihydroxytetrahydrofuran-2-yl)methoxy)-1-hydroxypropan-2-yl)phosphonic acid], the IC50 is at most 0.1 µM.
Regarding `C[C@](CO)(OC[C@H]1O[C@@H](n2ncc3c(NC4CCCC4)nc(C#CCO)nc32)[C@H](O)[C@@H]1O)P(=O)(O)O` (racemic) [Example 199, rac-((R)-2-(((2S,3R,4S,5S)-5-(4-(cyclopentylamino)-6-(3-hydroxyprop-1-yn-1 yl)-1H-pyrazolo[3,4-d]pyrimidin-1-yl)-3,4-dihydroxytetrahydrofuran-2-yl)methoxy)-1-hydroxypropan-2-yl)phosphonic acid], the IC50 was at most 0.1 µM.
The figure for `O=c1[nH]c(CC(CO)(OC[C@H]2O[C@@H](n3ncc4c(NC5CCCC5)nc(Cl)nc43)[C@H](O)[C@@H]2O)P(=O)(O)O)no1` (mixture of isomers) [Example 206, rac-(2-(((2R,3S,4R,5R)-5-(6-chloro-4-(cyclopentylamino)-1H-pyrazolo[3,4-d]pyrimidin-1-yl)-3,4-dihydroxytetrahydrofuran-2-yl)methoxy)-1-hydroxy-3-(5-oxo-4,5-dihydro-1,2,4-oxadiazol-3-yl)propan-2-yl)phosphonic acid] is at most 0.1 µM; for `O=P(O)(O)CS(=O)(=O)C[C@H]1O[C@@H](n2ncc3c(NC4CCCC4)cc(Cl)nc32)[C@H](O)[C@@H]1O` [Example 162, (((((2S,3S,4R,5R)-5-(6-chloro-4-(cyclopentylamino)-1H-pyrazolo[3,4-b]pyridin-1-yl)-3,4-dihydroxytetrahydrofuran-2-yl)methyl)sulfonyl)methyl)phosphonic acid] it is at most 0.1 µM.
